Data published in ChEMBL document CHEMBL1127588, “A structure-activity relationship study of benzylic modifications of 4-[1-(1-naphthyl)ethyl]-1H-imidazoles on alpha 1- and alpha 2-adrenergic receptors” (J Med Chem, 1994).

Tests used:
[1] = Ratio between IC50 values of alpha 1 and alpha 2 receptors
[2] = molecular target: T1, Adrenergic receptor alpha-1 (Rattus norvegicus, UniProt P15823+P23944+P43140); assay: Tested for its binding affinity against alpha-1 receptor in rat brain membrane; type: cell membranes
T1 sequence (P15823 whole entry): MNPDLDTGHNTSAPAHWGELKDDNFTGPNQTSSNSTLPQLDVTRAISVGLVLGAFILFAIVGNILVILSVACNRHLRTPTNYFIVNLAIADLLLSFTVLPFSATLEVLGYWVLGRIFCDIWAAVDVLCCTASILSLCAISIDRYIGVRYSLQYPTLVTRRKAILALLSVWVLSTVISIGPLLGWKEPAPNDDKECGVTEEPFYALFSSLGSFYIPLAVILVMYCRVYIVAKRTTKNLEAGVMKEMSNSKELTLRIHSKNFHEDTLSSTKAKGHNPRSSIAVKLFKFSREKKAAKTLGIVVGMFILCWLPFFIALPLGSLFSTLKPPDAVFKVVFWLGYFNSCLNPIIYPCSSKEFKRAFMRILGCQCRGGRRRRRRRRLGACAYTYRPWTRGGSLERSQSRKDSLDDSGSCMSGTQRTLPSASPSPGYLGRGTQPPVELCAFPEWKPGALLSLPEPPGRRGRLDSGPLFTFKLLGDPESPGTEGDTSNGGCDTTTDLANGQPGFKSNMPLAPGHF
T1 sequence (P23944 whole entry): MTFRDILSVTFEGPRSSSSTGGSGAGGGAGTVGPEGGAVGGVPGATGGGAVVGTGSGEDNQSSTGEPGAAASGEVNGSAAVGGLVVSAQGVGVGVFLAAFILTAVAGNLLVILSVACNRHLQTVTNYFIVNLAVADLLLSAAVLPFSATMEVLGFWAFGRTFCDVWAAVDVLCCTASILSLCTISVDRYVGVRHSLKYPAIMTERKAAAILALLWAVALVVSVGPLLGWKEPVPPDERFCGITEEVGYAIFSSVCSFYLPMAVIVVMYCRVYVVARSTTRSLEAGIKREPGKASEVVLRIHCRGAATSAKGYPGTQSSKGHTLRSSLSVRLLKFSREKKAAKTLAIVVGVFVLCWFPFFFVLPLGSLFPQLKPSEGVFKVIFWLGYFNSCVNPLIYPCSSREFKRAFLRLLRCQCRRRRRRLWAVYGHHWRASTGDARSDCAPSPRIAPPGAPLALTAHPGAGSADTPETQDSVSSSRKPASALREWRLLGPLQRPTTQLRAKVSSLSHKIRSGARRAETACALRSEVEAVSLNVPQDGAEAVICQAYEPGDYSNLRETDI
T1 sequence (P43140 whole entry): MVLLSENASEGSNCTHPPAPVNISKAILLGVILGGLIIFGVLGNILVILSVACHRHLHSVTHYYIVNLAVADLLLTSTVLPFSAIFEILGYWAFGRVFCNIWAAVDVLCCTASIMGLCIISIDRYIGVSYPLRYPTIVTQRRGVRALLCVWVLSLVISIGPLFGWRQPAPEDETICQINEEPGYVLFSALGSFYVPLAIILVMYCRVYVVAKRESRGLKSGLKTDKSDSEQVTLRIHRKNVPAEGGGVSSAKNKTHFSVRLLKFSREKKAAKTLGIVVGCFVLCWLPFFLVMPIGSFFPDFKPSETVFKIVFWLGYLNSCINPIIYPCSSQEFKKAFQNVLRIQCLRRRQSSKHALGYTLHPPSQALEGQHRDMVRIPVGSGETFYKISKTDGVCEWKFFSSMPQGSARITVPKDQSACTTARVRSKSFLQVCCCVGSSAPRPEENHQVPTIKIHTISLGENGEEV

[3] = molecular target: T2, Adrenergic receptor alpha-2 (Rattus norvegicus, UniProt P22086+P19328+P22909); assay: Tested for its binding affinity against alpha-2 receptor in rat brain membrane; type: cell membranes
T2 sequence (P22086 whole entry): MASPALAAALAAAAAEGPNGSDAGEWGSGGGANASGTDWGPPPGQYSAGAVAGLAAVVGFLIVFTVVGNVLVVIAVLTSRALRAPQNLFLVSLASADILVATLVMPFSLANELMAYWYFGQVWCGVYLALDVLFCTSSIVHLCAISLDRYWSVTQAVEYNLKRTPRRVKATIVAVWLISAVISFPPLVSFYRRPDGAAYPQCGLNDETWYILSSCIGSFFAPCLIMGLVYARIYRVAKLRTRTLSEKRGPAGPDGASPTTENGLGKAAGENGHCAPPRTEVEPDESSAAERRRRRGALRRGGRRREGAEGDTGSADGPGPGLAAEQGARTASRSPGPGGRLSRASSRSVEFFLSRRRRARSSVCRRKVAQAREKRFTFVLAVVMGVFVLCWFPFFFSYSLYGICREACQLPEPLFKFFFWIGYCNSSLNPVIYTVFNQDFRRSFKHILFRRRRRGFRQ
T2 sequence (P19328 whole entry): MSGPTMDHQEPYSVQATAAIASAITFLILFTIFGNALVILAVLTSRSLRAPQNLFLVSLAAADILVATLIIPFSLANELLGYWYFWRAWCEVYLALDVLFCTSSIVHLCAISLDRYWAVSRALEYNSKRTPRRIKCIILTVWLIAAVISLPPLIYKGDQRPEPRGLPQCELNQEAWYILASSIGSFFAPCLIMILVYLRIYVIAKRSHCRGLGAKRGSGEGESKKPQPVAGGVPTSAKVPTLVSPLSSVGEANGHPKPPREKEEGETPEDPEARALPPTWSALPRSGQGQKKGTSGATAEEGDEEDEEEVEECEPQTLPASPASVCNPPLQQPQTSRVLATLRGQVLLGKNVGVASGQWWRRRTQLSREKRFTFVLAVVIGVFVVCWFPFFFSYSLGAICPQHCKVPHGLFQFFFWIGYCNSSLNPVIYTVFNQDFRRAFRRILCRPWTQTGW
T2 sequence (P22909 whole entry): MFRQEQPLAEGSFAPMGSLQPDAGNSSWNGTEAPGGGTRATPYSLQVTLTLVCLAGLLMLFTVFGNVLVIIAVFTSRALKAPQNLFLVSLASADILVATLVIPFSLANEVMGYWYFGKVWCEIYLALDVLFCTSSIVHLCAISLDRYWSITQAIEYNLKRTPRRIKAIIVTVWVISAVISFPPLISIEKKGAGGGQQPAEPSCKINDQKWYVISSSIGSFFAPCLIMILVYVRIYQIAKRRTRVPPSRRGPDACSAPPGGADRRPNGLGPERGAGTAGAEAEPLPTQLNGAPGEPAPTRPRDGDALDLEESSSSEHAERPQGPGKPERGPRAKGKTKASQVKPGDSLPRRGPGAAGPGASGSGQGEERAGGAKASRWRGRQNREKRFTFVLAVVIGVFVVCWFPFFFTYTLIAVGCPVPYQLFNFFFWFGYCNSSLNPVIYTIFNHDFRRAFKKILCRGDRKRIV

[4] = molecular target: Adrenergic receptor alpha (Rattus norvegicus) (UniProt P15823+P23944+P43140+P22086+P19328+P22909); assay: Ratio between EC50 values of alpha 1 and alpha 2 receptors; type: protein assay

Row | Structure (SMILES) | Ratio [1] | Ki [2] [µM] | Ki [3] [µM] | Ratio [4]
1 | O=C(O)C(=O)O.O=C(c1c[nH]cn1)c1cccc2ccccc12 | 0.5 | 15.902 | 31.754 | –
2 | CC(c1c[nH]cn1)c1cccc2ccccc12 (stereo in doubt; 2) | 18.2 | – | – | 643
3 | CC(c1c[nH]cn1)c1cccc2ccccc12 (stereo in doubt; S-(-)-2) | 22.3 | – | – | –
4 | Cl.OC(c1c[nH]cn1)(c1cccc2ccccc12)C(F)(F)F (stereo unspecified) | > 2 | > 50 | > 24.539 | –
5 | CC(c1c[nH]cn1)c1cccc2ccccc12 (stereo in doubt; S-(+)-2) | 41.9 | – | – | 752
